Experimental data published in patent US20120115896A1, “ISOGENIC HUMAN CELL LINES COMPRISING MUTATED CANCER ALLELES AND PROCESS USING THE CELL LINES” (priority 2008, published 2012).
“And” between values parts separate entries of the source, which are not always exact repeats. Identical values can stand only once. Like-named read-outs stand apart in the source and are kept apart here.

Experiments:
[1] = test system: hTERT-HME1 cells carrying KRAS (G13D) KI; test: Drug assay: cell viability by ATP content (96 h), KI versus parental cells; ΔKI pharmarray analysis; conditions: for pharmarray: differential response of KRAS mutated cells versus WT: hTERT-HME1, FIG. 5H
[2] = test system: hTERT-HME1 cells carrying BRAF (V600E) KI; test: as above; conditions: for pharmarray: differential response of BRAF mutated cells versus WT: hTERT-HME1, FIG. 5H
[3] = test system: hTERT-HME1 cells carrying PIK3CA (E545K and H1047R) KI; test: Drug assay: cell viability by ATP content (96 h) and Hoechst/propidium iodide staining, KI versus parental cells; ΔKI pharmarray analysis
[4] = test system: hTERT-HME1 DKI cells carrying PIK3CA (H1047R) and EGFR (delE746-A750); test: Drug assay: cell viability by ATP content (96 h), DKI versus parental cells; ΔKI pharmarray analysis
[5] = test system: hTERT-HME1 cells carrying EGFR (delE746-A750) KI; test: Drug assay: cell viability by ATP content (CellTiter-Glo, 96 h), KI versus parental cells; ΔKI pharmarray analysis

## CCCCCc1cc(O)c2c(c1)OC(C)(C)[C@@H]1CCC(C)=C[C@@H]21 [THC]
[1]
  ΔKI KRAS: 0
[2]
  ΔKI BRAF: 0.3
[2]; Log(M) −4.60
  ΔKI BRAF: 0.46
[2]; listed as OGC-089
  ΔKI BRAF: 0.88
[3]
  ΔKI PIK3CA: 0
[4]
  ΔKI PIK3CA + EGFR: 0
[5]
  ΔKI EGFR: 0

## CC(C)c1nc(N(C)S(C)(=O)=O)nc(-c2ccc(F)cc2)c1/C=C/[C@@H](O)C[C@@H](O)CC(=O)O [rosuvastatin, Rosuvastatin Ca]
[2]
  pharmarray: differential response of BRAF mutated cells versus WT: more resistant

## CCCn1c(C)c(C(=O)c2cccc3ccccc23)c2ccccc21 [JWH-015]
[1]
  ΔKI KRAS: 0
[1]; Log(M) −3.55
  ΔKI KRAS: 0
[2]
  ΔKI BRAF: 0
[2]; Log(M) −3.55
  ΔKI BRAF: 0
[3]
  ΔKI PIK3CA: 0
[3]; Log(M) −3.55
  ΔKI PIK3CA: 0
[4]
  ΔKI PIK3CA + EGFR: 0
[4]; Log(M) −3.55
  ΔKI PIK3CA + EGFR: 0
[5]
  ΔKI EGFR: 0
[5]; Log(M) −3.55
  ΔKI EGFR: 0

## CCCCC/C=C\C/C=C\C/C=C\C/C=C\CCC(C)C(=O)NCCF (stereo not shown) [Met-F-AEA]
[1]
  ΔKI KRAS: 0
[2]; listed as OGC-079
  ΔKI BRAF: 0.3
[3]
  ΔKI PIK3CA: 0
[4]
  ΔKI PIK3CA + EGFR: 0
[5]
  ΔKI EGFR: 0

## COc1cc2ncnc(Nc3ccc(F)c(Cl)c3)c2cc1OCCCN1CCOCC1 [gefitinib, Gefitinib]
[1]
  pharmarray: differential response of KRAS mutated cells versus WT: resistant
[2]
  pharmarray: differential response of BRAF mutated cells versus WT: resistant

## C=CCNC1=C2C[C@@H](C)C[C@H](OC)[C@H](O)[C@@H](C)/C=C(\C)[C@H](OC(N)=O)[C@@H](OC)/C=C\C=C(/C)C(=O)NC(=CC1=O)C2=O [17-AAG, 17-Allylamino geldanamycin]
[2]
  ΔKI BRAF: 0
[2]; Log(M) −5.70
  ΔKI BRAF: 0.08
[2]; Log(M) −6.70
  ΔKI BRAF: 0
[3]
  ΔKI PIK3CA: 0
[3]; Log(M) −5.70
  ΔKI PIK3CA: 3
[3]; Log(M) −6.70
  ΔKI PIK3CA: 0
[4]
  ΔKI PIK3CA + EGFR: 0
[4]; Log(M) −5.70
  ΔKI PIK3CA + EGFR: 1.18
[4]; Log(M) −6.70
  ΔKI PIK3CA + EGFR: 0
[5]
  ΔKI EGFR: −11.7
[5]; Log(M) −5.70
  ΔKI EGFR: 0
[5]; Log(M) −6.70
  ΔKI EGFR: 0
[5]; hTERT-HME1, FIG. 5B, 5E
  pharmarray: differential response of EGFR mutated cells versus WT: less susceptible than their WT counterpart

## Tamoxifene Citrate
[1]
  ΔKI KRAS: 0
[1]; Log(M) −4.75
  ΔKI KRAS: 0
[1]; Log(M) −5.35
  ΔKI KRAS: 0
[2]
  ΔKI BRAF: 0
[2]; Log(M) −4.75
  ΔKI BRAF: 0
[2]; Log(M) −5.35
  ΔKI BRAF: 0
[3]; Log(M) −4.75
  ΔKI PIK3CA: 0
[3]; Log(M) −5.35
  ΔKI PIK3CA: 0.9
[4]
  ΔKI PIK3CA + EGFR: 0.96 and 0.78
[4]; Log(M) −4.75
  ΔKI PIK3CA + EGFR: 0
[4]; Log(M) −5.35
  ΔKI PIK3CA + EGFR: −0.92
[5]
  ΔKI EGFR: 0
[5]; Log(M) −4.75
  ΔKI EGFR: 0
[5]; Log(M) −5.35
  ΔKI EGFR: −0.54

## COc1ccc2c(c1)c(CC(=O)O)c(C)n2C(=O)c1ccc(Cl)cc1 [indomethacin, Indomethacin]
[3]; hTERT-HME1, 96 h, ATP assay, Hoechst/propidium iodide, FIG. 19
  extended analysis of effect on PIK3CA KI versus WT cells (viability, apoptosis): acts preferentially on cells carrying the PIK3CA mutation with both anti-proliferative and pro-apoptotic effects
[3]; hTERT-HME1, FIG. 5G
  pharmarray: differential response of PIK3CA mutated cells versus WT: unexpectedly active on PIK3CA mutated cells

## O=c1[nH]cc(F)c(=O)[nH]1 [5-FU]
[1]
  ΔKI KRAS: 0
[2]; listed as OGC-083
  ΔKI BRAF: 0
[3]
  ΔKI PIK3CA: 0
[4]
  ΔKI PIK3CA + EGFR: 0
[5]
  ΔKI EGFR: 0

## Erlotinib mesylate
[1]
  pharmarray: differential response of KRAS mutated cells versus WT: resistant
[2]
  pharmarray: differential response of BRAF mutated cells versus WT: resistant
[4]
  sensitization in DKI cells containing both EGFR and PIK3CA alterations: abrogates the sensitization seen with the EGFR KI alone
[5]
  growth inhibition of EGFR delE746-A750 KI versus WT cells: preferentially inhibited the growth
  pharmarray: differential response of EGFR mutated cells versus WT: inhibit EGFR mutated cells selectively
[5]; read-out: IC50 values of erlotinib in EGFR mutant cells
  IC50: 250 ± 140 nM

## CCCCC/C=C\C/C=C\C/C=C\C/C=C\CCCC(=O)Nc1ccc(O)cc1 [AM404]
[1]
  ΔKI KRAS: 0
[1]; Log(M) −4.70
  ΔKI KRAS: 0
[2]
  ΔKI BRAF: −0.12
[2]; Log(M) −4.70
  ΔKI BRAF: −1.68
[3]
  ΔKI PIK3CA: 0
[3]; Log(M) −4.70
  ΔKI PIK3CA: 0
[4]
  ΔKI PIK3CA + EGFR: 0
[4]; Log(M) −4.70
  ΔKI PIK3CA + EGFR: 0
[5]
  ΔKI EGFR: 0
[5]; Log(M) −4.70
  ΔKI EGFR: 0

## CCCCCCCCCCCCCCCCCCOCC(COC(=O)OC1C(O)C(O)C(O)C(CO)C1O)OC [OGC-023, 1L6-Hydroxymethyl-chiro-inositol-2-(R)-2-O-methyl-3-O-octadecyl-sn-glycerocarbonate]
[1]; Log(M) −4.14
  ΔKI KRAS: 0
[1]; Log(M) −4.62
  ΔKI KRAS: 0
[1]; Log(M) −5.10
  ΔKI KRAS: 0
[2]; Log(M) −4.14
  ΔKI BRAF: 0
[2]; Log(M) −4.62
  ΔKI BRAF: 0
[2]; Log(M) −5.10
  ΔKI BRAF: 0
[3]; Log(M) −4.14
  ΔKI PIK3CA: 0
[3]; Log(M) −4.62
  ΔKI PIK3CA: 0
[3]; Log(M) −5.10
  ΔKI PIK3CA: 0
[4]; Log(M) −4.14
  ΔKI PIK3CA + EGFR: 0
[4]; Log(M) −4.62
  ΔKI PIK3CA + EGFR: 3.32
[4]; Log(M) −5.10
  ΔKI PIK3CA + EGFR: 2.4
[5]; Log(M) −4.14
  ΔKI EGFR: 0
[5]; Log(M) −4.62
  ΔKI EGFR: 0
[5]; Log(M) −5.10
  ΔKI EGFR: 0

## c1cc(-c2cnn3cc(-c4ccc(OCCN5CCCCC5)cc4)cnc23)ccn1 [Compound C]
[1]
  ΔKI KRAS: 0
[1]; Log(M) −4.70
  ΔKI KRAS: 0
[2]
  ΔKI BRAF: 0
[2]; Log(M) −4.70
  ΔKI BRAF: 0
[3]
  ΔKI PIK3CA: 0
[3]; Log(M) −4.70
  ΔKI PIK3CA: 0
[4]
  ΔKI PIK3CA + EGFR: 0
[4]; Log(M) −4.70
  ΔKI PIK3CA + EGFR: 0
[5]
  ΔKI EGFR: 0
[5]; Log(M) −4.70
  ΔKI EGFR: 0

## CC[C@H](C)C(=O)O[C@H]1CCC=C2C=C[C@H](C)[C@H](CC[C@@H]3C[C@@H](O)CC(=O)O3)[C@H]21 [mevastatin, Mevastatin]
[2]
  pharmarray: differential response of BRAF mutated cells versus WT: more resistant

## COc1ccc2c(c1)c(CC(=O)N1CCOCC1)c(C)n2C(=O)c1ccc(Cl)cc1 [IMMA (BML-190)]
[1]
  ΔKI KRAS: 0
[1]; Log(M) −3.90
  ΔKI KRAS: 0
[2]
  ΔKI BRAF: 0
[2]; Log(M) −3.90
  ΔKI BRAF: 0
[3]
  ΔKI PIK3CA: 0
[3]; Log(M) −3.90
  ΔKI PIK3CA: 0.72
[4]
  ΔKI PIK3CA + EGFR: 0
[4]; Log(M) −3.90
  ΔKI PIK3CA + EGFR: 0
[5]
  ΔKI EGFR: 0
[5]; Log(M) −3.90
  ΔKI EGFR: 0

## COC(=O)C1=CC[C@@]23CC[C@@H]([C@@](C)(/C=C/C=C(\C)C(=O)O)OC2=O)[C@@]3(OC(C)=O)CC1 [Pseudolaric Acid B]
[1]
  ΔKI KRAS: 0
[1]; Log(M) −6.48
  ΔKI KRAS: 0
[2]; Log(M) −6.48
  ΔKI BRAF: 0
[3]
  ΔKI PIK3CA: 0
[3]; Log(M) −6.48
  ΔKI PIK3CA: 0
[4]; Log(M) −6.48
  ΔKI PIK3CA + EGFR: 0.54
[5]
  ΔKI EGFR: 0
[5]; Log(M) −6.48
  ΔKI EGFR: 0

## COc1ccc(-c2cc(=O)c3c(O)c(OC)c(O)cc3o2)cc1OC [Eupatiline]
[1]
  ΔKI KRAS: 0
[1]; Log(M) −3.97
  ΔKI KRAS: 0
[2]
  ΔKI BRAF: −0.1
[2]; Log(M) −3.97
  ΔKI BRAF: 2.9
[3]
  ΔKI PIK3CA: −1.66
[3]; Log(M) −3.97
  ΔKI PIK3CA: 0
[4]
  ΔKI PIK3CA + EGFR: 0
[4]; Log(M) −3.97
  ΔKI PIK3CA + EGFR: 0
[5]
  ΔKI EGFR: 0
[5]; Log(M) −3.97
  ΔKI EGFR: 0

## O=c1c(-c2ccc(O)cc2)coc2cc(O)cc(O)c12 [genistein, Genistein]
[5]
  pharmarray: differential response of EGFR mutated cells versus WT: EGFR sensitive drug cluster

## CC/C(=C(\c1ccc(O)cc1)c1ccc(OCCN(C)C)cc1)c1ccccc1 [Tamoxifen 4-Hydroxy-(Z)]
[1]
  ΔKI KRAS: 0
[2]
  ΔKI BRAF: 0

## CC[C@H](C)C(=O)O[C@H]1C[C@@H](C)C=C2C=C[C@H](C)[C@H](CC[C@@H]3C[C@@H](O)CC(=O)O3)[C@H]21 [lovastatin, Lovastatin]
[2]
  pharmarray: differential response of BRAF mutated cells versus WT: more resistant

## Sunitinib Maleate
[1]; Log(M) −4.82
  ΔKI KRAS: 0
[1]; Log(M) −5.30
  ΔKI KRAS: 0
[1]; Log(M) −5.78
  ΔKI KRAS: 0
[2]; Log(M) −4.82
  ΔKI BRAF: 0
[2]; Log(M) −5.30
  ΔKI BRAF: 4.42
[2]; Log(M) −5.78
  ΔKI BRAF: 0
